Assay results published in patent US10487117B2, “Antimicrobial peptide for nosocomial infections” (priority 2015, dated 2019).
Residues, ends and D or L forms follow the SMILES beside them.

Key:
Type in all cases: cell-based, Pseudomonas aeruginosa
[1] = tested on: planktonic P. aeruginosa; experiment: DiSC3(5) cytoplasmic membrane depolarization assay, planktonic; conditions: for Depolarization %max: 10% Triton X-100 as maximum reference
Experimental: To further investigate the antimicrobial mechanism of action of the peptide, its ability to depolarize P. aeruginosa membranes was evaluated. Depolarization activity was analyzed by the DiSC3(5) assay (Table 5). DiSC3(5) is a fluorescent probe, which is sensitive to membrane potential. The DiSC3(5) fluorescence is quenched upon interaction with intact cell membranes. When the membrane potential is lost, the probe is released to the medium, resulting in an increase of fluorescence that can be recorded as a function of peptide concentration. Thus, the half depolarization action (ED50) was evaluated, defined as the peptide concentration needed to achieve a half-depolarization effect, and the total depolarization activity at final incubation time (Table 3).
(§1) Membrane depolarization was followed using the method described earlier (Torrent M. et al. 2008). Briefly, bacterial cells were grown at 37° C. to an OD600=0.2, centrifuged at 5000×g for 7 min, washed with 5 mM Hepes at pH 7.2 containing 20 mM glucose, and resuspended in 5 mM Hepes-KOH, 20 mM glucose, and 100 mM KCl at pH 7.2 to an OD600=0.05 and 200 μl were transferred to a microtiter plate for planktonic assays. For biofilm assay, 24 h formed P. aeruginosa biofilm in a 96-well microtiter plate were washed three times with sterile PBS. Afterwards P. aeruginosa biofilms were washed with 5 mM Hepes at pH 7.2 containing 20 mM glucose, and rinsed in 5 mM Hepes-KOH, 20 mM glucose, and 100 mM KCl at pH 7.2. In both cases, DiSC3(5) was added to a final concentration of 0.4 μM and changes in the fluorescence were continuously recorded after addition of peptides at 10 μM in a Victor3 plate reader. A maximum reference value for total depolarization is calculated for Triton X-100 at 10%. Alternatively, changes in the fluorescence were continuously recorded after addition of a serially diluted protein/peptides from 50 to 0.1 μM. The peptide concentration required to achieve half of total and total membrane depolarization after 40 min incubation time was estimated from nonlinear regression analysis as previously described (Torrent M. et al. 2010)

[2] = Biofilm cell mortality, BacTiter-Glo luminescent assay; conditions: 24 h formed biofilm; 4 h at 37° C.; 10% Triton X-100 as maximum reference; N.D. = not detected at 50 μM; read-out: Biofilm cell mortality (%max)
Experimental: Bacterial viability was assayed using the BacTiter-Glo™ microbial cell viability kit. Briefly, protein/peptides were dissolved in 10 mM sodium phosphate, 0.1M buffer, pH 7.5, serially diluted from 50 to 0.1 μM and tested in a 96-well microtiter plate containing P. aeruginosa planktonic (OD600˜0.2) or 24 h formed biofilm for 4 h at 37° C. Fifty microliters of BacTiter-Glo™ reagent was added to each well according to the manufacturer's instructions and incubated at room temperature for 15 min. Luminescence was read on a Victor3 plate reader with a 3-s integration time. Fifty percent (ED50) and total inhibitory concentrations were calculated by fitting the data to a dose-response curve.
As a first approach, the biofilm cell viability was monitored using the BacTiter-Glo™ luminescent assay. Therefore, the antimicrobial action of the studied AMPs was determined on already established P. aeruginosa biolfilms (FIG. 1 and Table 6). […] However, for all the active peptides, the concentrations needed to produce an equivalent effect in biofilms were between 2 to 10 times higher than in planktonic cultures. […] At the same time, we applied the crystal violet technique to assess the peptide ability to disperse pre-established P. aeruginosa biofilms.
Biofilm formation assay was modified from the previously described protocol (Huedo P. et al. 2014). Briefly, overnight cultures of P. aeruginosa were centrifuged at 5000×g for 5 min, washed and adjusted to an OD600=0.1 in tryptic soy medium (TSB). Two hundred microliters of the bacterial suspension were dispensed in each well of a polystyrene 96-well microtiter plate (Greiner Bio-one, France). The plate was incubated at 37° C. on an orbital shaker (30 rpm). The media was exchanged with fresh pre-warmed TSB after 4 h, in order to remove the non-attached bacteria. After 24 h incubation, the formation of biofilm was then evaluated using the crystal violet staining technique (Stepanovic S. et al. 2000). Briefly, the plates were washed three times with PBS, fixed at 60° C. for 1 h, and stained for 15 min with 200 μl of 0.1% crystal violet. After the dye was discarded, plates were rinsed in PBS and allowed to dry for 30 min at 37° C. Crystal violet was dissolved in 250 μl of 95% ethanol for 15 min, and the OD570 of the extracted dye was measured using a Victor3 plate reader (Perkin-Elmer, Waltham, Mass.).

[3] = tested on: established P. aeruginosa biofilms; experiment: DiSC3(5) membrane depolarization assay on biofilm; conditions: maximum percentage at final incubation time, 10% Triton X-100 reference
Experimental: as §1
(§2) Thereupon, the antimicrobial mechanism of action of the RNase 3 derived peptide on P. aeruginosa biofilms was further characterized with the depolarization and permeabilization assays. As applied for the P. aeruginosa planktonic culture, the fluorescent DisC3(5) assay was also used here in order to monitor the depolarization activity of the studied protein and peptides against established biofilms. Therefore, we have measured the half depolarization action (ED50), and the total depolarization activity expressed as a percentage (Table 7). […] Similar results were obtained for the Sytox Green permeabilization assay, where the total permeabilization effect was hindered for all the AMPs tested, and between two to ten times higher concentrations were required to achieve half of the biofilm cell permeabilizing effect in comparison to the planktonic cells.

[4] = tested on: established P. aeruginosa biofilms; experiment: SYTOX Green membrane permeabilization assay on biofilm; conditions: maximum percentage at final incubation time, 10% Triton X-100 reference
Experimental: Membrane permeabilization was followed using the method SYTOX Green Fluorescence membrane permeabilization assay. In the planktonic assay, bacterial cells were grown at 37° C. to an OD600=0.2, centrifuged at 5000×g for 5 min, and resuspended in 1×PBS to an OD600=0.2. An aliquot of 200 μl was then transferred to a microtiter plate. For biofilm assay, 24 h formed P. aeruginosa biofilm in a 96-well microtiter plate were washed three times with sterile PBS. SYTOX Green was added to a final concentration of 1 μM and incubated 15 min in darkness. Changes in the fluorescence were continuously recorded after addition of a serially diluted protein/peptides from 50 to 0.1 μM in a Victor3 plate reader. The peptide concentration required to achieve half of total and total membrane permeabilization achieved after 40 min was estimated from nonlinear regression analysis as previously described (Pulido D. et al. Antimicrob Agents Chemother 2013). A maximum reference value was taken for Triton X-100 at 10%.
as §2

| Compound | Depolarization %max [1] [%] | mortality [2] [%] | Depolarization Mean % ± SEM [3] [%] | Permeabilization Mean % ± SEM [4] [%] | Depolarization ED50 ([1]; 40 min, N.D. = not detected at 50 μM) |
| --- | --- | --- | --- | --- | --- |
| CC[C@H](C)[C@H](NC(=O)CNC(=O)[C@@H](NC(=O)[C@H](CCCCN)NC(=O)[C@H](CCCCN)NC(=O)[C@H](Cc1ccccc1)NC(=O)[C@H](CC(C)C)NC(=O)[C@H](CCCCN)NC(=O)[C@H](Cc1c[nH]c2ccccc12)NC(=O)[C@@H](N)CCCCN)[C@@H](C)CC)C(=O)NCC(=O)N[C@@H](C)C(=O)N[C@H](C(=O)N[C@@H](CC(C)C)C(=O)N[C@@H](CCCCN)C(=O)N[C@H](C(=O)N[C@@H](CC(C)C)C(=O)N[C@H](C(=O)N[C@H](C(=O)NCC(=O)N[C@@H](CC(C)C)C(=O)N1CCC[C@H]1C(=O)N[C@@H](C)C(=O)N[C@@H](CC(C)C)C(=O)N[C@H](C(=O)N[C@@H](CO)C(N)=O)[C@@H](C)CC)[C@@H](C)O)[C@@H](C)O)C(C)C)C(C)C [CA-M] | 71.36 ± 7.60 | 54.3 ± 5.51 | 39.09 ± 2.46 | 23.01 ± 1.13 | – |
| CC[C@H](C)[C@H](NC(=O)[C@H](CCCCN)NC(=O)[C@H](CCC(=O)O)NC(=O)[C@H](CCCCN)NC(=O)[C@H](CO)NC(=O)[C@H](CCCCN)NC(=O)[C@H](CCCNC(=N)N)NC(=O)[C@H](Cc1ccccc1)NC(=O)[C@H](Cc1ccccc1)NC(=O)[C@H](CC(=O)O)NC(=O)CNC(=O)[C@H](CC(C)C)NC(=O)[C@@H](N)CC(C)C)C(=O)NCC(=O)N[C@@H](CCCCN)C(=O)N[C@@H](CCC(=O)O)C(=O)N[C@@H](Cc1ccccc1)C(=O)N[C@@H](CCCCN)C(=O)N[C@@H](CCCNC(=N)N)C(=O)N[C@H](C(=O)N[C@H](C(=O)N[C@@H](CCC(N)=O)C(=O)N[C@@H](CCCNC(=N)N)C(=O)N[C@H](C(=O)N[C@@H](CCCCN)C(=O)N[C@@H](CC(=O)O)C(=O)N[C@@H](Cc1ccccc1)C(=O)N[C@@H](CC(C)C)C(=O)N[C@@H](CCCNC(=N)N)C(=O)N[C@@H](CC(N)=O)C(=O)N[C@@H](CC(C)C)C(=O)N[C@H](C(=O)N1CCC[C@H]1C(=O)N[C@@H](CCCNC(=N)N)C(=O)N[C@H](C(=O)N[C@@H](CCC(=O)O)C(=O)N[C@@H](CO)C(N)=O)[C@@H](C)O)C(C)C)[C@@H](C)CC)C(C)C)[C@@H](C)CC [LL-37] | 28.24 ± 2.91 | 64 ± 3.33 | 31.85 ± 1.15 | 24.21 ± 3.71 | – |
| CC[C@H](C)[C@H](NC(=O)[C@H](CCC(N)=O)NC(=O)CN)C(=O)N[C@H](C(=O)N[C@@H](CC(N)=O)C(=O)N[C@@H](CC(C)C)C(=O)N[C@@H](CCCCN)C(=O)N[C@@H](C)C(=O)N[C@@H](CO)C(=O)N[C@@H](CC(C)C)C(=O)N[C@@H](CC(=O)O)C(=O)N[C@@H](CC(C)C)C(=O)N[C@@H](CC(C)C)C(N)=O)[C@@H](C)CC [GL-13, GQIINLKASLDLL-NH2] (H-GQIINLKASLDLL-NH2) | – | – | – | – | not able to produce any depolarization effect |
